We go through two compounds from ChEMBL document CHEMBL4118099, “Targeting Transcriptional Enhanced Associate Domains (TEADs)” (J Med Chem, 2018).

The target in assay [1] is Transcriptional enhancer factor TEF-3 (Homo sapiens, UniProt Q15561). As to the kind of experiment: Binding affinity to human His-tagged TEAD4 YBD (217 to 434 residues) expressed in Escherichia coli BL21(DE3) after 30 mins by ITC assay. (In general: Isothermal titration calorimetry measures the heat released or taken up as one component is titrated into another.)
Assay [2] has as its target T1, Transcriptional enhancer factor TEF-1 (Homo sapiens, UniProt P28347). As to the kind of experiment: Inhibition of human His-tagged YAP (50 to 171 residues) interaction with human GST-tagged TEAD1 (194 to 411) expressed in Escherichia coli BL21(DE3) incubated for 30 mins measured by SPR assay. In general terms: In SPR one partner is held on a chip, and binding of the other changes the refractive index at the surface.

The target of assay [3] is T1, Transcriptional enhancer factor TEF-1. The assay is described as follows: Binding affinity to human GST-tagged TEAD1 (194 to 411) expressed in Escherichia coli BL21(DE3) by SPR assay.

SMILES strings stand for the structures.

T1 sequence (P28347 whole entry, the tested form may be a part): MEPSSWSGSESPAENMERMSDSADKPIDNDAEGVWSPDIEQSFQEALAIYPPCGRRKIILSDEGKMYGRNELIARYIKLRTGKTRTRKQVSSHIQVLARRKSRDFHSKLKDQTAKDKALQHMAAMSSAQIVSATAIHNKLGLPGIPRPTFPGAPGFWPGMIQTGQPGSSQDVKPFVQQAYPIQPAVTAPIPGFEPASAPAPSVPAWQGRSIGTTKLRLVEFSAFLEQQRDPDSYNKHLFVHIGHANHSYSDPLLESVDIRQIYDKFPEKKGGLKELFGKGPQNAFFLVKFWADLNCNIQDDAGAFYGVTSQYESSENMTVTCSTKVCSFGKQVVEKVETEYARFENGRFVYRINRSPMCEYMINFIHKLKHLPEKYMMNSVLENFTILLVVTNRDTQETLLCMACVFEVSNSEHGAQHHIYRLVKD
Sequence of Transcriptional enhancer factor TEF-3 (Q15561 whole entry, the tested form may be a part): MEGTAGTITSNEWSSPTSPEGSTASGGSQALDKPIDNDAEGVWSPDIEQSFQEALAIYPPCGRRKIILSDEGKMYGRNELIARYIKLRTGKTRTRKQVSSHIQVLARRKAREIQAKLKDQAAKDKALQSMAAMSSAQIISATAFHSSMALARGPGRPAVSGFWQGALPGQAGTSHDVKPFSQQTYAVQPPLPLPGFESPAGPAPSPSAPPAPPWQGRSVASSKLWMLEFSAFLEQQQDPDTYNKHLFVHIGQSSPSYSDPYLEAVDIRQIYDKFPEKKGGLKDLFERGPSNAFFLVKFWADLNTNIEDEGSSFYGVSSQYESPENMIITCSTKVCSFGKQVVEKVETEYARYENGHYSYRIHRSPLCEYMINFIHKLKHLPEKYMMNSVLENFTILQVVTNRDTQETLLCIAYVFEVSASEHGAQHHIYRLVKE

The term Kd denotes the concentration at which binding is half-saturated. Take `O=C(O)c1cccnc1Nc1cccc(C(F)(F)F)c1` [NIFLUMIC ACID]: the Kd in assay [1] was 28 µM.
Usually IC50 stands for the midpoint of a concentration-inhibition curve. Take `CCCC[C@@H]1NC(=O)[C@H](CCCCN)NC(=O)[C@H](CCCNC(=N)N)NC(=O)[C@H](CC(C)C)NC(=O)[C@@H](NC(=O)[C@H](Cc2cccc(Cl)c2)N[C@H](C)[C@@H]2CCCN2C(=O)[C@@H](NC(C)=O)C(C)C)CCSSC[C@@H](C(=O)N[C@@H](CCCCN)C(=O)N2CCC[C@H]2C(=O)N2CCC[C@H]2C(=O)N[C@@H](CCC(=O)O)C(N)=O)NC(=O)[C@@H](Cc2ccccc2)NC(=O)[C@H](CO)NC(=O)[C@H](C)NC(=O)[C@@H]2CCCN2C1=O`: the IC50 in assay [2] amounted to 0.025 µM. For the same compound, in assay [3], the dissociation constant (Kd) amounted to 0.015 µM.
